Measurements published in ChEMBL document CHEMBL4507260 (2021).

Legend:
Details in all cases: Compound concentration 1000.0 nM
[1] = test system: Tyrosine-protein kinase ABL1 (Homo sapiens), P00519 [T315I]
[2] = test system: Tyrosine-protein kinase ABL1 (Homo sapiens), P00519 [Y253F]
[3] = target: Activin receptor type-1-like (Homo sapiens) (UniProt P37023)
[4] = target: 5'-AMP-activated protein kinase catalytic subunit alpha-2 (Homo sapiens) (UniProt P54646)
[5] = target: Protein-tyrosine kinase 6 (Homo sapiens) (UniProt Q13882)
[6] = target: Calcium/calmodulin-dependent protein kinase type 1G (Homo sapiens) (UniProt Q96NX5)
[7] = target: Cyclin-dependent kinase 11B (Homo sapiens) (UniProt P21127)
[8] = target: Cyclin-dependent kinase-like 1 (Homo sapiens) (UniProt Q00532)
[9] = target: Casein kinase I isoform gamma-2 (Homo sapiens) (UniProt P78368)
[10] = target: Casein kinase II subunit alpha (Homo sapiens) (UniProt P68400)
[11] = target: Casein kinase II subunit alpha' (Homo sapiens) (UniProt P19784)
[12] = target: Serine/threonine-protein kinase DCLK1 (Homo sapiens) (UniProt O15075)
Chain of Serine/threonine-protein kinase DCLK1 (Homo sapiens) (O15075 whole entry): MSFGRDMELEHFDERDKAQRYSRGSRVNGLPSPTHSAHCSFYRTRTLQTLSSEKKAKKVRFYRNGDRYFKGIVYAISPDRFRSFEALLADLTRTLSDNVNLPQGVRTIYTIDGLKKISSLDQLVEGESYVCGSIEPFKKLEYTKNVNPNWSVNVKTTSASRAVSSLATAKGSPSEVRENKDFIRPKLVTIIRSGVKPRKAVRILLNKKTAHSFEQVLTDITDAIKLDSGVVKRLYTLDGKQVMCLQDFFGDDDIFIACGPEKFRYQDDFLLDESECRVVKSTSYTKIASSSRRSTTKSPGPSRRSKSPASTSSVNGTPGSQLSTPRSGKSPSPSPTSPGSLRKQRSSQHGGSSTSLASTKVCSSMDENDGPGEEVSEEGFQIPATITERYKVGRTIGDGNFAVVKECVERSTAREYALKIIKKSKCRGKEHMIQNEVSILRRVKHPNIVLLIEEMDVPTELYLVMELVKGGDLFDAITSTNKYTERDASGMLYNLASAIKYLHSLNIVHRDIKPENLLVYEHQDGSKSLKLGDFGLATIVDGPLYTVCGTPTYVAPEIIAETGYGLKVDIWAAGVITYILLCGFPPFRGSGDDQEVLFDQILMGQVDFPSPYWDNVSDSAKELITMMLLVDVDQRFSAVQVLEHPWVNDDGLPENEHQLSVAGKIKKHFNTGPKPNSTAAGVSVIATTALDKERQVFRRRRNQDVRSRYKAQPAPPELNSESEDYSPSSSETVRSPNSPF

[13] = target: Ephrin type-B receptor 6 (Homo sapiens) (UniProt O15197)
Chain of Ephrin type-B receptor 6 (Homo sapiens) (O15197 whole entry): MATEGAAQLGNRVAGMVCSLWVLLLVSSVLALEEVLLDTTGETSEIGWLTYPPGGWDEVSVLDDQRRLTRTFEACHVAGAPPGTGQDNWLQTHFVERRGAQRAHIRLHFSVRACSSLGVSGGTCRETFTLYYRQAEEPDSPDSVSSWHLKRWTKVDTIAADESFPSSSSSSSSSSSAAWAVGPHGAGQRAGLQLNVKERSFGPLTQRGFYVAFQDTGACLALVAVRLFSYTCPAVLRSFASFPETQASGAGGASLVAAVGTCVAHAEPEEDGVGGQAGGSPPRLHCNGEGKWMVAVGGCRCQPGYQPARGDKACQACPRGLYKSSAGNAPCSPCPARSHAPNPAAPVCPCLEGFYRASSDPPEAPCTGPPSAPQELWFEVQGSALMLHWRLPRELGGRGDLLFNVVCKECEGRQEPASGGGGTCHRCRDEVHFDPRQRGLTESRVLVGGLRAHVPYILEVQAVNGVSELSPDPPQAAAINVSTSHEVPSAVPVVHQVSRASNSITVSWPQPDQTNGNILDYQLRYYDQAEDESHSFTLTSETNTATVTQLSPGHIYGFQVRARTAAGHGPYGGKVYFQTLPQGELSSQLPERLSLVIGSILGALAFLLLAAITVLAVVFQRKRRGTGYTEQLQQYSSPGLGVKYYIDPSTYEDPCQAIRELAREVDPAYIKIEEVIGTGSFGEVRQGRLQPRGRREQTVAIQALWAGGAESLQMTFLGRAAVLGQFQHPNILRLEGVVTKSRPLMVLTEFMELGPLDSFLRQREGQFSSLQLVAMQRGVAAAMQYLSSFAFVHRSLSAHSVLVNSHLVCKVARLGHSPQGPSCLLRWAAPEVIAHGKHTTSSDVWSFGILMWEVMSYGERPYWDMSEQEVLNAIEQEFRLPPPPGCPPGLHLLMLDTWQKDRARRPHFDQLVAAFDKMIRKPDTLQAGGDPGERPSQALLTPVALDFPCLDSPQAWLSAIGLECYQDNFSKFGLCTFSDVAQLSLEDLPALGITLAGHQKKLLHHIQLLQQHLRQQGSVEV

[14] = target: Mitogen-activated protein kinase 1 (Homo sapiens) (UniProt P28482)
[15] = target: Serine/threonine-protein kinase/endoribonuclease IRE1 (Homo sapiens) (UniProt O75460)
Chain of Serine/threonine-protein kinase/endoribonuclease IRE1 (Homo sapiens) (O75460 19-977 limits assumed): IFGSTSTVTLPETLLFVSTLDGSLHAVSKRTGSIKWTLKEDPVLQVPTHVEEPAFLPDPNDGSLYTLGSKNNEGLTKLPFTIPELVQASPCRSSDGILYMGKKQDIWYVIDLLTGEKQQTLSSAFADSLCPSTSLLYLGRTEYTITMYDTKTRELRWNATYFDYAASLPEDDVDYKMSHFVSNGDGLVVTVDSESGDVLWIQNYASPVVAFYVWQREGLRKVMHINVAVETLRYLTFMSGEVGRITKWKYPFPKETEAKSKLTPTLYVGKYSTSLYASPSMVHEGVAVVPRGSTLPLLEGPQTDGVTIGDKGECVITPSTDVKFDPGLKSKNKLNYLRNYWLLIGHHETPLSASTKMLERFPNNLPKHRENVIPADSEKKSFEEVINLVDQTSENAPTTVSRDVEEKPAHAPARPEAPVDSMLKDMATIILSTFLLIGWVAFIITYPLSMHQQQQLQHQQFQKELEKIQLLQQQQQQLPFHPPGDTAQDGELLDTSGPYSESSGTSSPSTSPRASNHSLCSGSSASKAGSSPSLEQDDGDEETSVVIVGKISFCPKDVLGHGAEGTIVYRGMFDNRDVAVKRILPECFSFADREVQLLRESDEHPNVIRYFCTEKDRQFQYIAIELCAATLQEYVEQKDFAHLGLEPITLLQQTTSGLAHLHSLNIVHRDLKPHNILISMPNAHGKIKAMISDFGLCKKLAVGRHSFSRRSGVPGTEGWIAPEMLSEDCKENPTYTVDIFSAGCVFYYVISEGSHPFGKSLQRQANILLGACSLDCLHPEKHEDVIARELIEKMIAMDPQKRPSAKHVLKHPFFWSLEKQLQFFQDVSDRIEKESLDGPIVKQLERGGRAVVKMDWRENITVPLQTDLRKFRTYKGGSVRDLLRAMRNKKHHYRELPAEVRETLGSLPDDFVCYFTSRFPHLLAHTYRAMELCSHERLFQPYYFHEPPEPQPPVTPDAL

[16] = target: Receptor-type tyrosine-protein kinase FLT3 (Homo sapiens) (UniProt P36888)
[17] = test system: Receptor-type tyrosine-protein kinase FLT3 (Homo sapiens), P36888 [UNDEFINED MUTATION]
[18] = target: Glycogen synthase kinase-3 beta (Homo sapiens) (UniProt P49841)
[19] = target: Homeodomain-interacting protein kinase 3 (Homo sapiens) (UniProt Q9H422)
[20] = target: Homeodomain-interacting protein kinase 4 (Homo sapiens) (UniProt Q8NE63)
[21] = target: Mitogen-activated protein kinase kinase kinase kinase 1 (Homo sapiens) (UniProt Q92918)
Chain of Mitogen-activated protein kinase kinase kinase kinase 1 (Homo sapiens) (Q92918 whole entry, looked up): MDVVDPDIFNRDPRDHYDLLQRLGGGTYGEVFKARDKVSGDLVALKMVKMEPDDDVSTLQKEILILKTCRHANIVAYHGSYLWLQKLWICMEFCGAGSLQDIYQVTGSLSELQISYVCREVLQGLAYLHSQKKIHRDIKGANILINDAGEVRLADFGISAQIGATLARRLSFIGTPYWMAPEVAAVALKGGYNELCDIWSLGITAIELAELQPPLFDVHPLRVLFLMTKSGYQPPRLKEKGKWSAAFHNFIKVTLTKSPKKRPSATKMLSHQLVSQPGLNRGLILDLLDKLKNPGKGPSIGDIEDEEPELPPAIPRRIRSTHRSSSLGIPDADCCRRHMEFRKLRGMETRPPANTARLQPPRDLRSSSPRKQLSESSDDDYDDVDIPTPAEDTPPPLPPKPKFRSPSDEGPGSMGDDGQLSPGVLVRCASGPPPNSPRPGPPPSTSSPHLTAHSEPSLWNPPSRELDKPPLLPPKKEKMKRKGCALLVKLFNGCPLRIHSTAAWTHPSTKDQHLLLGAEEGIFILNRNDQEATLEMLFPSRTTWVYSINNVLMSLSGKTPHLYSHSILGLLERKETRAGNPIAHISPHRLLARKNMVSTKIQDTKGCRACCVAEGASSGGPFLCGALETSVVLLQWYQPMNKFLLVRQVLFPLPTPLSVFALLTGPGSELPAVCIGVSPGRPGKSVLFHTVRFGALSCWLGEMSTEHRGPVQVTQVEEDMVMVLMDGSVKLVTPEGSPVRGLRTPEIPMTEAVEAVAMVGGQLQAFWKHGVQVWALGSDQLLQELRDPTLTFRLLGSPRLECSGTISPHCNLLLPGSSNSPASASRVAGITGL

[22] = target: Insulin-like growth factor 1 receptor (Homo sapiens) (UniProt P08069)
[23] = target: Interleukin-1 receptor-associated kinase 1 (Homo sapiens) (UniProt P51617)
[24] = target: Tyrosine-protein kinase JAK1 (Homo sapiens) (UniProt P23458)
[25] = test system: Mast/stem cell growth factor receptor Kit (Homo sapiens), P10721 [D816H]
[26] = target: Serine/threonine-protein kinase STK11 (Homo sapiens) (UniProt Q15831)
Chain of Serine/threonine-protein kinase STK11 (Homo sapiens) (Q15831 whole entry): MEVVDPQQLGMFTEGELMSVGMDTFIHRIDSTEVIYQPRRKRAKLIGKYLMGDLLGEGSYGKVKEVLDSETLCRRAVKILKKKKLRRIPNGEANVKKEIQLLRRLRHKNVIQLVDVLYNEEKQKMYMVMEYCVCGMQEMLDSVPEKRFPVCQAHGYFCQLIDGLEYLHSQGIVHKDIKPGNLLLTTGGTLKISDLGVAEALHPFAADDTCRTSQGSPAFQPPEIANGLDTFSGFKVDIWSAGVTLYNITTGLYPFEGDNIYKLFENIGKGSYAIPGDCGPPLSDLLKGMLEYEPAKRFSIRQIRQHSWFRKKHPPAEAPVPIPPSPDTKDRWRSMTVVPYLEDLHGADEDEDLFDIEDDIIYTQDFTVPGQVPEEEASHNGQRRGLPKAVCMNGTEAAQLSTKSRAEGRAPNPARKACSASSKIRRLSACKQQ

[27] = target: Serine/threonine-protein kinase 10 (Homo sapiens) (UniProt O94804)
[28] = target: Mitogen-activated protein kinase kinase kinase 13 (Homo sapiens) (UniProt O43283)
[29] = target: MAP kinase-interacting serine/threonine-protein kinase 1 (Homo sapiens) (UniProt Q9BUB5)
[30] = target: MAP kinase-interacting serine/threonine-protein kinase 2 (Homo sapiens) (UniProt Q9HBH9)
Chain of MAP kinase-interacting serine/threonine-protein kinase 2 (Homo sapiens) (Q9HBH9 whole entry, looked up): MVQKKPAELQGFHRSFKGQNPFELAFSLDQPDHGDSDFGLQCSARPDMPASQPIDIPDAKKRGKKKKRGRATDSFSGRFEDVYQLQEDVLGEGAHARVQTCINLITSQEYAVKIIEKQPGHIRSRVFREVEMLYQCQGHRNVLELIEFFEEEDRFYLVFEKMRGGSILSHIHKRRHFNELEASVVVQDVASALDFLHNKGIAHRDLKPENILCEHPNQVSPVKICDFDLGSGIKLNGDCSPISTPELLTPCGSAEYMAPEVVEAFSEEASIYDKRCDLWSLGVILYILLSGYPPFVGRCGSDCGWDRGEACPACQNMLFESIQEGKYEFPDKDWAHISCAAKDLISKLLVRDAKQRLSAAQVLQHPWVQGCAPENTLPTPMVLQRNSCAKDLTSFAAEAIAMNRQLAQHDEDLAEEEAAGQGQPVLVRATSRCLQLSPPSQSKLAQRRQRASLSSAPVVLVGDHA

[31] = target: Mitogen-activated protein kinase kinase kinase 10 (Homo sapiens) (UniProt Q02779)
[32] = target: Muscle, skeletal receptor tyrosine-protein kinase (Homo sapiens) (UniProt O15146)
[33] = target: Serine/threonine-protein kinase 38 (Homo sapiens) (UniProt Q15208)
[34] = target: Mitogen-activated protein kinase kinase kinase 14 (Homo sapiens) (UniProt Q99558)
[35] = target: Serine/threonine-protein kinase PAK 4 (Homo sapiens) (UniProt O96013)
Chain of Serine/threonine-protein kinase PAK 4 (Homo sapiens) (O96013 whole entry, looked up): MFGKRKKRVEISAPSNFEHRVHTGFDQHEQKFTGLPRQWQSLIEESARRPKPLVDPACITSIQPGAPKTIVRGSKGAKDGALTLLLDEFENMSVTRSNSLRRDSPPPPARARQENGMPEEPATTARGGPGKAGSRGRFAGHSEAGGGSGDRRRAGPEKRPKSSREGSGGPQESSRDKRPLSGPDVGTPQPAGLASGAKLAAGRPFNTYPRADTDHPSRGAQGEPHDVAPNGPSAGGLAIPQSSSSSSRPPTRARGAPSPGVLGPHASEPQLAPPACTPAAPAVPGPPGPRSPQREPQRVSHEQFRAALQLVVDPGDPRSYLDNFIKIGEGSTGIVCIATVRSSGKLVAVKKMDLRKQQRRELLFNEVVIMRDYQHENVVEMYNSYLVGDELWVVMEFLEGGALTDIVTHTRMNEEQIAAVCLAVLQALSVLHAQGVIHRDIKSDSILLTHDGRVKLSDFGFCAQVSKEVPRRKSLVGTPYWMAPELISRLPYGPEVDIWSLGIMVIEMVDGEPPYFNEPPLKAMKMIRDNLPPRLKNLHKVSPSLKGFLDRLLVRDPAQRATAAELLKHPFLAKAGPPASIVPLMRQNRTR

[36] = target: Cyclin-dependent kinase 16 (Homo sapiens) (UniProt Q00536)
[37] = target: 1-phosphatidylinositol 3-phosphate 5-kinase (Homo sapiens) (UniProt Q9Y2I7)
[38] = target: Serine/threonine-protein kinase PLK3 (Homo sapiens) (UniProt Q9H4B4)
[39] = target: Protein kinase C iota type (Homo sapiens) (UniProt P41743)
[40] = target: Serine/threonine-protein kinase PRP4 homolog (Homo sapiens) (UniProt Q13523)
[41] = target: Ribosomal protein S6 kinase alpha-6 (Homo sapiens) (UniProt Q9UK32)
[42] = target: Serine/threonine-protein kinase SBK1 (Homo sapiens) (UniProt Q52WX2)
[43] = target: Serine/threonine-protein kinase TNNI3K (Homo sapiens) (UniProt Q59H18)
[44] = target: Testis-specific serine/threonine-protein kinase 1 (Homo sapiens) (UniProt Q9BXA7)
[45] = target: Serine/threonine-protein kinase WNK1 (Homo sapiens) (UniProt Q9H4A3)

Measured: residual activity

CSc1cccnc1N1CCN(Cc2nc3ccccc3[nH]2)CC1 [A-769]
inactive: [1] 93% | [2] 76% | [3] 100% | [4] 100% | [5] 88% | [6] 100% | [7] 100% | [8] 100% | [9] 99% | [10] 81% | [11] 100% | [12] 82% | [13] 89% | [14] 93% | [15] 70% | [16] 100% | [17] 100% | [18] 78% | [19] 96% | [20] 100% | [21] 100% | [22] 100% | [23] 73% | [24] 100% | [25] 100% | [26] 100% | [27] 87% | [28] 82% | [29] 98% | [30] 75% | [31] 100% | [32] 100% | [33] 88% | [34] 100% | [35] 100% | [36] 81% | [37] 100% | [38] 80% | [39] 100% | [40] 100% | [41] 94% | [42] 99% | [43] 100% | [44] 100% | [45] 100%

c1ccc(N2CCN(Cc3nc4ccccc4[nH]3)CC2)nc1 [ABT-724]
inactive: [1] 100% | [2] 100% | [3] 95% | [4] 100% | [5] 100% | [6] 100% | [7] 100% | [8] 78% | [9] 100% | [10] 97% | [11] 100% | [12] 100% | [13] 75% | [14] 100% | [15] 100% | [16] 100% | [17] 100% | [18] 93% | [19] 100% | [20] 91% | [21] 100% | [22] 100% | [23] 100% | [24] 91% | [25] 100% | [26] 70% | [27] 100% | [28] 86% | [29] 91% | [30] 100% | [31] 93% | [32] 100% | [33] 89% | [34] 94% | [35] 93% | [36] 100% | [37] 100% | [38] 100% | [39] 97% | [40] 57% | [41] 100% | [42] 100% | [43] 100% | [44] 100% | [45] 100%
